Laboratory results published in ChEMBL document CHEMBL1201862, “PubChem BioAssay data set” (2004).
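Where inhibition never reached the appropriate level, the endpoint shown equals the highest concentration tested. Otherwise, values were interpolated linearly from a five-concentration, 48-hour dose response in 96-well plates. Abbreviation: GI50, concentration required for 50% inhibition of growth.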 Calls of active or inactive are those of the source. Rule as the data show it: active = GI50 up to about 1.1 µM and inactive = higher. Where a SMILES comes first, the peptide text is derived from it. The star is where a group is joined. Fmoc = O=C(OCC1c2ccccc2-c2ccccc21)*; OBn = c1ccc(CO*)cc1; tBu = CC(C)(C)*

How the values were obtained:
Experiment in all cases: NCI tumour cell line growth inhibition, 48 h
HL-60 = tested on: HL-60
K562 = tested on: K562
HCT-116 = tested on: HCT-116
SN12C = tested on: SN12C
NCI/ADR-RES = tested on: NCI/ADR-RES
SF-295 = tested on: SF-295
IGROV-1 = tested on: IGROV-1
SNB-19 = tested on: SNB-19
HCT-15 = tested on: HCT-15
KM12 = tested on: KM12
OVCAR-3 = tested on: OVCAR-3
U-251 = tested on: U-251
SF-268 = tested on: SF-268
UO-31 = tested on: UO-31
786-0 = tested on: 786-0
NCI-H522 = tested on: NCI-H522
RPMI-8226 = tested on: RPMI-8226
MOLT-4 = tested on: MOLT-4
NCI-H460 = tested on: NCI-H460
DLD-1 = tested on: DLD-1

Compound	GI50 (HL-60)	GI50 (K562)	GI50 (HCT-116)	GI50 (SN12C)	GI50 (NCI/ADR-RES)	GI50 (SF-295)	GI50 (IGROV-1)	GI50 (SNB-19)	GI50 (HCT-15)	GI50 (KM12)	GI50 (OVCAR-3)	GI50 (U-251)	GI50 (SF-268)	GI50 (UO-31)	GI50 (786-0)	GI50 (NCI-H522)	GI50 (RPMI-8226)	GI50 (MOLT-4)	GI50 (NCI-H460)	GI50 (DLD-1)
C=CCNC(=S)N/C=C(\C#N)C(N)=O	> 100 µM (inactive)	> 100 µM (inactive)	> 100 µM (inactive)	> 100 µM (inactive)	> 100 µM (inactive)	> 100 µM (inactive)	> 100 µM (inactive)	> 100 µM (inactive)	> 100 µM	> 100 µM (inactive)	> 100 µM (inactive)	> 100 µM (inactive)	> 100 µM (inactive)	> 100 µM (inactive)	> 100 µM (inactive)	> 100 µM (inactive)	> 100 µM (inactive)	> 100 µM (inactive)	> 100 µM (inactive)	–
Nc1c(C(=O)c2ccc(Cl)c(Cl)c2)[nH]c(NCc2ccccc2)c1C(=S)Nc1ccccc1	19.1 µM (inactive)	3.32 µM (inactive)	3.48 µM (inactive)	14.9 µM (inactive)	2.08 µM (inactive)	3.48 µM (inactive)	11.8 µM (inactive)	18.5 µM (inactive)	2.51 µM	3.18 µM (inactive)	17.5 µM (inactive)	3.96 µM (inactive)	14.1 µM (inactive)	6.7 µM (inactive)	11.2 µM (inactive)	4.83 µM (inactive)	2.65 µM (inactive)	3.31 µM (inactive)	5.42 µM (inactive)	–
C/C(=N\NC(=S)N/N=C(\C)c1ccccn1)c1ccccn1	> 100 µM (inactive)	1.92 µM (inactive)	1.84 µM (inactive)	0.345 µM (active)	0.381 µM (active)	1.57 µM (inactive)	4.28 µM (inactive)	3.56 µM (inactive)	0.627 µM	1.28 µM (inactive)	0.656 µM (active)	0.771 µM (active)	0.817 µM (active)	0.809 µM (active)	2.07 µM (inactive)	6.49 µM (inactive)	2.54 µM (inactive)	1.31 µM (inactive)	0.533 µM (active)	–
Cc1ccc(/N=N\c2c(O)c(S(=O)(=O)O)cc3cc(S(=O)(=O)O)ccc23)c(C)c1	> 100 µM (inactive)	> 100 µM (inactive)	> 100 µM (inactive)	> 100 µM (inactive)	> 100 µM (inactive)	> 100 µM (inactive)	> 100 µM (inactive)	> 100 µM (inactive)	> 100 µM	> 100 µM (inactive)	> 100 µM (inactive)	> 100 µM (inactive)	> 100 µM (inactive)	> 100 µM (inactive)	> 100 µM (inactive)	> 100 µM (inactive)	> 100 µM (inactive)	> 100 µM (inactive)	> 100 µM (inactive)	–
COC(=O)C1C(=O)O[C@@H](c2ccc(OC)cc2)C1C(=O)OC (some centres undefined)	–	> 100 µM (inactive)	> 100 µM (inactive)	> 100 µM (inactive)	–	> 100 µM (inactive)	> 100 µM (inactive)	> 100 µM (inactive)	–	> 100 µM (inactive)	> 100 µM (inactive)	> 100 µM (inactive)	> 100 µM (inactive)	> 100 µM (inactive)	> 100 µM (inactive)	–	> 100 µM (inactive)	> 100 µM (inactive)	–	> 100 µM (inactive)
O=C1OC(C2OC(=O)c3cc(O)c(O)c(O)c3-c3c(O)c(O)c4oc(=O)c5c(c(O)c(O)c6oc(=O)c3c4c65)-c3c(cc(O)c(O)c3O)C(=O)OCC2O)C2OC(=O)c3c(c(O)c(O)c(O)c3[C@H]2O)-c2c1cc(O)c(O)c2O (some centres undefined)	13.7 µM (inactive)	19.2 µM (inactive)	17.3 µM (inactive)	15.9 µM (inactive)	21.8 µM (inactive)	16.6 µM (inactive)	25.6 µM (inactive)	96.8 µM (inactive)	13.2 µM	15.2 µM (inactive)	24.4 µM (inactive)	20.9 µM (inactive)	24.7 µM (inactive)	16.4 µM (inactive)	18.2 µM (inactive)	17.1 µM (inactive)	28.5 µM (inactive)	22.6 µM (inactive)	24.9 µM (inactive)	–
CC(OC(C)(C)C)C(NC(=O)OCC1c2ccccc2-c2ccccc21)C(=O)NC(Cc1ccccc1)C(=O)OCc1ccccc1 (centres undefined) (Fmoc-Thr(tBu)-Phe-OBn; configuration not given here)	> 100 µM (inactive)	> 100 µM (inactive)	> 100 µM (inactive)	> 100 µM (inactive)	> 100 µM (inactive)	> 100 µM (inactive)	> 100 µM (inactive)	> 100 µM (inactive)	> 100 µM	> 100 µM (inactive)	> 100 µM (inactive)	> 100 µM (inactive)	> 100 µM (inactive)	> 46.6 µM (inactive)	> 100 µM (inactive)	> 100 µM (inactive)	> 71.8 µM (inactive)	> 61.9 µM (inactive)	> 100 µM (inactive)	–
